Measured values published in US20230124862A1, “BISMUTH THIOL COMPOUNDS AND COMPOSITIONS AND METHODS OF TREATING MICROBIAL CO-INFECTIONS” (Microbion Corporation, priority 2020, published 2023).
≈ marks a conversion by molar mass, not a printed value. Like-named read-outs stand apart in the source and are kept apart here.

Tests used:
[1] = test system: M. avium; assay: MIC testing of CF isolates; type: cell-based; settings: Mycobacterium avium
[2] = test system: Achromobacter spp. biofilm; assay: Activity against biofilms; type: cell-based; settings: tested up to 250 μg/mL
From the text: A dose response is also apparently associated with both compounds (FIG. 21).

[3] = test system: Pseudomonas aeruginosa strain PA01; assay: Bacterial killing curves with and without CF patient sputum; type: cell-based; settings: for bactericidal activity: 0.1 μg/mL
[4] = test system: Anaerobes (Bacteroides fragilis, Clostridium difficile); assay: Agar dilution MIC (Example 11); type: cell-based
Experimental: The susceptibility of anaerobic bacteria was determined by agar dilution using Brucella Agar (BD/BBL; Lot No. 5237692) supplemented with 5 μg/mL hemin (Sigma, St. Louis, Mo.; Lot No. 108K1088), 1 μg/mL Vitamin K1 and 5% (v/v) laked sheep blood (Cleveland Scientific, Bath, Ohio; Lot No. 322799).
Agar Dilution MIC Testing (Anaerobic Bacteria and Gonococci): MIC values for anaerobic bacteria were determined using a reference agar dilution method as described by CLSI (6). Organisms were grown at 35° C. in the Bactron II Anaerobic Chamber (Shel Lab, Cornelius, Oreg.) for approximately 48 hr prior to the assay. Drug dilutions and drug-supplemented agar plates were prepared manually per CLSI (6). The plates were allowed to stand at room temperature for 1 hr to allow the agar surface to dry and pre-reduced for approximately 1 hr in the anaerobe chamber prior to inoculation. Each isolate was suspended to the equivalent of a 0.5 McFarland standard in Brucella broth using a turbidity meter (Dade Behring MicroScan, West Sacramento, Calif.). Each bacterial cell suspension was then diluted 1:10 in Brucella broth and transferred to wells in a stainless steel replicator block which was used to inoculate the test plates. The prongs on the replicator deliver approximately 1-2 μl of inoculum to an agar surface. The resulting inoculum spots contained approximately 1×10^5 CFU/spot. After the inoculum dried, the inoculated drug-supplemented agar plates and no drug growth control plates were incubated at 35° C. for 42-48 hr in the anaerobe chamber. The MIC was read per CLSI guidelines (6).

[5] = test system: S. aureus ATCC 29213; settings: cited from earlier work; for Expected MIC: goal (acceptable range): control strain ATCC 29213
[6] = in vivo; set-up: species or system F344 rats; settings: both sexes; for concentration at 30 hr: sac time 30 hr
Experimental: Detailed gross necropsies were performed on all animals (found dead, moribund, or scheduled necropsy) and consisted of a complete external and internal examination including body orifices and cranial, thoracic, and abdominal organs and tissues. All gross findings will be recorded in descriptive terms. […] Lungs collected and weighed.

[7] = test system: MucilAir fully differentiated human airway epithelium
[8] = test system: P. aeruginosa; settings: control strain ATCC 27853; cited from earlier work
[9] = test system: P. aeruginosa; settings: P. aeruginosa isolate 103; CLSI QC range in parenthesis; cited from earlier work
[10] = test system: P. aeruginosa; settings: P. aeruginosa isolate 103; CLSI QC range in parenthesis; cited from earlier work; remark: listed apart in the source
[11] = test system: Escherichia coli; settings: CLSI established QC range, cited from earlier work
[12] = test system: Pseudomonas aeruginosa; settings: P. aeruginosa ATCC 27853; CLSI established QC range; cited from earlier work
[13] = test system: Burkholderia cepacia complex; type: cell-based, Burkholderia spp.; settings: initial MIC testing
[14] = test system: Escherichia coli; assay: Broth microdilution MIC (Example 12); type: cell-based
[15] = test system: Enterobacteriaceae; settings: E. coli (MMX 102), QC; cited from earlier work
[16] = test system: P. aeruginosa and A. baumannii; settings: P. aeruginosa (MMX 103), QC; cited from earlier work

Compound: CC(S)C(C)S.[Bi] (stereo not shown) [BisBDT, bismuth-2,3-butanedithiol]
- MIC ([1]; strain AMT G193-13): > 16 µg/mL
- MIC ([1]; strain MAC101): 1 µg/mL
- reduction in viable biofilm cells [2]: 5 log
- bactericidal activity [3]: not bactericidal
- more surviving in cultures with sputum ([3]; 4 μg/mL, 3-6 hours): 0.5-0.8 log CFU/mL
- killing without sputum ([3]; 4 μg/mL, over the 6 hour assay): about 1 log
- time to sterilization below the limit of detection ([3]; 20 μg/mL, with and without sputum): ≤ 5 h
- MIC ([4]; Bacteroides fragilis, ATCC25285, B. fragilis MMX 123 (ATCC 25285), QC, read-out: MIC): 1 µg/mL
- MIC ([4]; Bacteroides fragilis, agar dilution, read-out: MIC values): 1 to 4 µg/mL
- MIC ([4]; C. difficile MMX 5680 (NCTC 13336), ribotype 027, CC^1 MET^R, read-out: MIC): 2 µg/mL
- MIC ([4]; C. difficile MMX 8272, ribotype 255, CC^1, read-out: MIC): 2 µg/mL
- MIC ([4]; C. difficile MMX 8279, ribotype 005, CC^R, read-out: MIC): 2 µg/mL
- MIC ([4]; C. difficile MMX 8281, ribotype 010, CC^R, read-out: MIC): 2 µg/mL
- Expected MIC: goal (acceptable range) [5]: 0.25 (0.12-0.5) mcg/mL

Compound: C1C[S][Bi]([S]CC[S][Bi]2[S]CC[S]2)[S]1 [BisEDT, Bismuth-1,2-ethanedithiol]
- bactericidal activity [3]: not bactericidal
- concentration at 30 hr ([6]; F344, in vivo, rat, inhalation, dose 47 μg/kg, read-out: Mean BisEDT Conc, lung at sacrifice): 4.8 ng/g
- concentration at 30 hr ([6]; F344, in vivo, rat, inhalation, dose 124 μg/kg, read-out: Mean BisEDT Conc, lung at sacrifice): 5.9 ng/g
- concentration at 30 hr ([6]; F344, in vivo, rat, inhalation, dose 400 μg/kg, read-out: Mean BisEDT Conc, lung at sacrifice): 12.1 ng/g
- concentration at 24 hr ([6]; F344, in vivo, rat, inhalation, dose 3000 μg/kg, sac time 24 hr, read-out: Mean BisEDT Conc, lung at sacrifice): 82.3 ng/g
- Kp at 24 hours ([6]; F344, rat, in vivo, rats, 24 hours after dosing, read-out: lung tissue drug levels higher than blood levels): 4 to 5
- TEER ([7]; BisEDT in solution 0.001-30 μM, all time points): didn't show significant effect
- TEER ([7]; solid, 1 μg/cm^2, 8, 24 and 48H): Loss of tissue integrity
- TEER ([7]; solid, 1 μg/cm^2, 1 hour): no significant effect
- TEER ([7]; solid, 0.033 and 0.33 μg/cm^2, all time points): No significant effect
- TEER ([7]; solid, all tested doses, 1 hour exposure): no significant effect
- Expected MIC: goal (acceptable range) [8]: 1 to 2 µg/mL
- QC Range 24 hr ([5]; S. aureus ATCC 29213, established QC range, 24 hr): 0.12-1
- Expected MIC: goal (acceptable range) [5]: 0.25 to 0.5 µg/mL
- CLSI QC range of MIC [9]: (0.5-4)^2 μg/mL
- CLSI QC range of MIC [10]: (0.5-4) μg/mL
- QC range of MIC ([11]; E. coli ATCC 25922): (0.5-4)^1 μg/mL
- QC range of MIC [12]: (0.5-4) μg/mL

Compound: C[C@@H](O)[C@H]1C(=O)N2C(C(=O)O)=C(S[C@@H]3CN[C@H](C(=O)N(C)C)C3)[C@H](C)[C@H]12 [MEM]
- MIC ([13]; B. cenocepacia isolate 0548 (CIP-R)): 4 µg/mL (≈ 10.4 µM)
- MIC ([13]; B. cenocepacia isolate 0813 (CPI-I)): 2 µg/mL (≈ 5.22 µM)
- MIC ([13]; B. cenocepacia isolate 1631): 4 µg/mL (≈ 10.4 µM)
- MIC ([13]; B. cenocepacia isolate 1783): 4 µg/mL (≈ 10.4 µM)
- MIC ([13]; B. cenocepacia isolate 8555): 4 µg/mL (≈ 10.4 µM)
- MIC ([13]; B. cepacia isolate 0546): 4 µg/mL (≈ 10.4 µM)
- MIC ([13]; B. cepacia isolate 0547): 2 µg/mL (≈ 5.22 µM)
- MIC ([13]; B. cepacia isolate 1793): 4 µg/mL (≈ 10.4 µM)
- MIC ([13]; B. cepacia isolate 1794): 4 µg/mL (≈ 10.4 µM)
- MIC ([13]; B. cepacia isolate 9040): 4 µg/mL (≈ 10.4 µM)
- MIC ([13]; B. multivorans isolate 1580 (CIP-R)): 2 µg/mL (≈ 5.22 µM)
- MIC ([13]; B. multivorans isolate 1791): 4 µg/mL (≈ 10.4 µM)
- MIC ([13]; B. multivorans isolate 1795 (MEM-I, CIP-R)): 8 µg/mL (≈ 20.9 µM)
- MIC ([13]; B. multivorans isolate 5665 (CIP-I)): 2 µg/mL (≈ 5.22 µM)
- MIC ([13]; B. multivorans isolate 8952 (CIP-I)): 2 µg/mL (≈ 5.22 µM)
- MIC ([14]; E. coli ATCC 25922, ATCC QC organism (Table 102)): ≤0.008 µg/mL
- MIC ([14]; E. coli ATCC 35218, ATCC QC organism (Table 102)): ≤0.008 µg/mL
- MIC ([14]; E. coli ATCC 35218, ESBL): ≤0.008 µg/mL
- MIC ([14]; E. coli ATCC BAA-2471, NDM): >8 µg/mL
- MIC ([14]; E. coli CDC 114, ESBL/KPC): 2 µg/mL (≈ 5.22 µM)
- MIC ([14]; E. coli CDC 118, ESBL/NDM): 0.06 µg/mL (≈ 0.156 µM)
- MIC ([14]; E. coli CDC 435, NDM): >8 µg/mL
- MIC ([14]; E. coli CDC 451, KPC): 1 µg/mL (≈ 2.61 µM)
- MIC ([14]; E. coli CDC 503, ESBL/NDM): 8 µg/mL (≈ 20.9 µM)
- MIC ([14]; E. coli MMX 5745, KPC): 2 µg/mL (≈ 5.22 µM)
- MIC ([14]; E. coli MMX 5755, ESBL): 0.015 µg/mL (≈ 0.0391 µM)
- MIC ([14]; E. coli MMX 5756, ESBL): ≤0.008 µg/mL
- MIC ([14]; E. coli MMX 5758, ESBL): ≤0.008 µg/mL
- CLSI QC range of MIC [9]: (0.12-1) μg/mL
- CLSI QC range of MIC [10]: (0.12-1) μg/mL
- CLSI Quality Control Range (MIC) [15]: (0.008-0.06) μg/mL
- CLSI Quality Control Range (MIC) [16]: (0.25-1)
- QC range of MIC ([11]; E. coli ATCC 25922): (0.008-0.06) μg/mL
- QC range of MIC ([11]; E. coli ATCC 35218): (0.008-0.06) μg/mL
- QC range of MIC [12]: (0.12-1) μg/mL
